Assays:
Caco-2 permeability = format: in vitro ADME; conditions: human
Protocol: (§1) Determination of semi-thermodynamic solubility, metabolic stability in S9 fraction, Caco-2 permeability and PPB were performed by Cyprotex Ltd. (www.cyprotex.com, accessed on 22 October 2021) using their standard assays and as described on their website.

[1] = Semi-thermodynamic aqueous solubility; format: physicochemical; conditions: aqueous (buffer or water not specified), thermodynamic from solid
Protocol: as §1

porcine neuronal tubulin = target: T1, porcine neuronal tubulin (Sus scrofa, UniProt P02550+P02554); assay: Microtubule (tubulin) polymerisation cell-free assay; format: biochemical; conditions: read-out: IC50, inhibition of tubulin polymerisation
T1 construct: performed using porcine neuronal tubulin (Cytoskeleton, Inc, Denver, CO, USA, BK006P); purchased Cytoskeleton, Inc BK006P; host or cells: porcine brain (neuronal) tissue
Protocol: The microtubule polymerisation assay was performed using porcine neuronal tubulin (Cytoskeleton, Inc, Denver, CO, USA, BK006P) as an adaptation of the original method of Shelanski et al. and Lee et al. at Cytoskeleton, Inc.

FLT3 = target: T2, FLT3 (Homo sapiens, UniProt P36888); assay: Test against FLT3; format: biochemical; conditions: testing concentrations from 1 to 10 μM
T2 sequence (P36888 27-993): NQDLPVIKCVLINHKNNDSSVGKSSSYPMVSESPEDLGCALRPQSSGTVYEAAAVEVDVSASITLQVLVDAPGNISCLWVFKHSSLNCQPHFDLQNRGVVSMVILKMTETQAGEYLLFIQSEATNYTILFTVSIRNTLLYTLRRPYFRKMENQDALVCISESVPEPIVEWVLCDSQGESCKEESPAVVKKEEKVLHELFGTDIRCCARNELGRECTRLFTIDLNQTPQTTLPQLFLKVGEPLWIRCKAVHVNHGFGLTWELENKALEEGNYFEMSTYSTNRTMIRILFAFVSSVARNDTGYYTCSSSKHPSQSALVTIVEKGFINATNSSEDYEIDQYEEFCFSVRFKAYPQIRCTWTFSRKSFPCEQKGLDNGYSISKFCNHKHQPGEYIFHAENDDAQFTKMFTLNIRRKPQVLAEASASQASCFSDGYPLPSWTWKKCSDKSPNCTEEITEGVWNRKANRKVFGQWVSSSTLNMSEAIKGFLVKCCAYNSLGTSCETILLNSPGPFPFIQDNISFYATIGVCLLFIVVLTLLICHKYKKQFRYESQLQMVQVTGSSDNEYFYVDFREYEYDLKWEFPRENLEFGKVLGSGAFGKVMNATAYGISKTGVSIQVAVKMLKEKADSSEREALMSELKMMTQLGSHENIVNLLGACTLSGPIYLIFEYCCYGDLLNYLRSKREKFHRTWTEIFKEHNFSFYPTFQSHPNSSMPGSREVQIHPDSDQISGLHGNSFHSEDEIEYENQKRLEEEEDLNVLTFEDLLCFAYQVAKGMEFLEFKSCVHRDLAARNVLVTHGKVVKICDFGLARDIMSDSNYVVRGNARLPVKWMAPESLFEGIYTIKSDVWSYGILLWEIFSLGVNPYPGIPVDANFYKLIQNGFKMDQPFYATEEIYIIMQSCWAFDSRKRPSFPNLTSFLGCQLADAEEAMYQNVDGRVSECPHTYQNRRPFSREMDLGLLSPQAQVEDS

DHODH = DHODH (Homo sapiens, UniProt Q02127); assay: Test against DHODH; format: biochemical; conditions: testing concentrations from 1 to 10 μM
Plasma protein binding = format: in vitro ADME; conditions: % unbound, read-out: PPB, unbound
Protocol: as §1

panel of kinases = assay: Test against a panel of kinases; format: biochemical; conditions: testing concentrations from 1 to 10 μM
[2] = Single dose PK study in male CD-1 mice; format: in vivo, mouse
Source text: In order to undertake a preliminary assessment of the pharmacokinetic (PK) profile of this compound class, three compounds were deemed to have sufficient intrinsic potency, solubility and in vitro metabolic stability properties to progress into a single dose in vivo PK study. […] […] […] Nonetheless, the clearance of the three compounds was high to moderate, and at this dose the in vitro EC50 was not reached.
Male CD-1 mice were used for the PK studies, with three for each treatment. […] Blood concentration was measured by LC-MS/MS over 24 h.

HL-60 cells = assay: CD11b expression assay by flow cytometry in HL-60 cells; format: cell-based, human; conditions: for EC50: Homo sapiens, HL-60, 96 h, 4-day (96 h) treatment, CD11b upregulation, read-out: EC50 [nM], %CD11b response in HL60 cells; for LipE (lipophilic efficiency): LipE = -LogEC50-cLogP, EC50 of CD11b assay in HL-60
Protocol: (§2) Cells were treated with 1000 structurally diverse small molecules selected from a commercial library. A single point testing concentration of 10 µM was used. After 4 days, cells were stained with a CD11b antibody and analysed using flow cytometry. Compounds upregulating CD11b expression greater than 10% in at least three of the cell lines were considered as potential hits. Hit confirmation was undertaken as follows: first, the hit was re-tested at 10 µM both with the CD11b antibody and an isotype control to account for nonspecific binding. Secondly, the effect of the hit on cell proliferation and viability was evaluated through staining with DAPI to evaluate the number of dead cells, and with acridine orange to detect total cell numbers. Thirdly, the induction of differentiation caused by the compounds was confirmed through morphology assessment with Giemsa staining. Finally, the molecule was resynthesised and fully characterised to confirm structural authenticity. This fresh sample was then retested in the CD11b assay to generate a concentration-response curve. The study of proliferation and morphology was performed on a panel of six cell lines: HL-60, THP-1, OCI-AML3, KG-1, Kasumi-1 and ME-1.
Thus, structure-activity relationship studies were initiated, where the potency of the new analogues was evaluated through concentration-response testing using the CD11b assay in HL-60 cells. Lipophilic efficiency (LipE), which also accounts for lipophilicity, was also used to compare the quality of the analogues. Even though multiple parameters can influence activity in a cell-based assay, LipE is a useful guide to compare analogues.
PE mouse-anti-human-CD11b/Mac-1 (ICRF44, Cat 555388) and PE-mouse-IgG1-κ-isotype control (MOPC-21, Cat 555749) were purchased from BD Bioscience. Cells were suspended in 100 μL growth media (RPMI + 10% FBS + 1% L-glutamine) at a density of 2 × 10^4 cells/well of a V-bottom 96 well plate (Corning, Cat 3894) and grown for 96 h in the presence of compound at the required concentration. After 96 h, the plate was centrifuged, media was removed, and cells were resuspended in 50 µL of blocking buffer (IMDM, no phenol red + 10% FBS) containing 2.5 μL of either CD11b or isotype control antibody and incubated on ice in the dark for 20 min. Cells were washed twice in 200 μL of staining buffer (IMDM, no phenol red + 1% FBS) before being resuspended in 200 μL of staining buffer containing 1 μg/mL of DAPI to help identify dead cells. Flow cytometry data were collected on an Attune NxT and analysed using the Attune NxT software (Life Technologies).

[3] = Metabolic stability in mouse S9 fraction; format: in vitro ADME; conditions: ER = Clint/species flow rate (mice: 90 mL/min/kg)
Protocol: as §1
[22] Extraction ratio (ER) is calculated as the measured intrinsic clearance over the hepatic blood flow of each species (90 mL/min/kg for mice). It has the advantage over other parameters (half-life, clearance) that it is independent of the species used

[4] = test system: HL-60, THP-1, OCI-AML3, KG-1, Kasumi-1 and ME-1; assay: Morphology assessment of stained cytospins; format: cell-based, human; conditions: 10 µM, 4-day treatment, six cell lines
Protocol: as §2
Cells were prepared in staining buffer (IMDM, no phenol red + 2% FBS) at a concentration of approximately 1 × 10^5 cells/mL. […]

[5] = test system: HL-60, THP-1, OCI-AML3, KG-1, Kasumi-1 and ME-1; assay: Cell counts and viability (acridine orange / DAPI); format: cell-based, human; conditions: 10 µM, 4 days
Protocol: as §2, with “The study of proliferation and morphology was performed on a panel of six cell lines: HL-60, THP-1, OCI-AML3, KG-1, Kasumi-1 and ME-1.” left out
Solution 13 containing acridin orange and DAPI was purchased from ChemoMetec (Cat 910-3013). After the appropriate cell treatment, one volume of solution 13 was added into 19 volumes of the premixed cell suspension and analysed using the NucleoCounter® NC-300^TM (ChemoMetec).

OCI-AML3 cells = assay: CD11b expression assay by flow cytometry in OCI-AML3 cells; format: cell-based; conditions: Homo sapiens, OCI-AML-3, 96 h, 4-day treatment, resynthesised sample
Protocol: as §2, with “The study of proliferation and morphology was performed on a panel of six cell lines: HL-60, THP-1, OCI-AML3, KG-1, Kasumi-1 and ME-1.” left out
(§3) PE mouse-anti-human-CD11b/Mac-1 (ICRF44, Cat 555388) and PE-mouse-IgG1-κ-isotype control (MOPC-21, Cat 555749) were purchased from BD Bioscience. […] Flow cytometry data were collected on an Attune NxT and analysed using the Attune NxT software (Life Technologies).

THP-1 cells = assay: CD11b expression assay by flow cytometry in THP-1 cells; format: cell-based; conditions: Homo sapiens, 96 h, 4-day treatment, resynthesised sample
Protocol: as §2, with “The study of proliferation and morphology was performed on a panel of six cell lines: HL-60, THP-1, OCI-AML3, KG-1, Kasumi-1 and ME-1.” left out
as §3

[6] = mouse, whole blood, single dose 3 mg/kg po, blood

DHODH, sequence (Q02127 whole entry, species assumed): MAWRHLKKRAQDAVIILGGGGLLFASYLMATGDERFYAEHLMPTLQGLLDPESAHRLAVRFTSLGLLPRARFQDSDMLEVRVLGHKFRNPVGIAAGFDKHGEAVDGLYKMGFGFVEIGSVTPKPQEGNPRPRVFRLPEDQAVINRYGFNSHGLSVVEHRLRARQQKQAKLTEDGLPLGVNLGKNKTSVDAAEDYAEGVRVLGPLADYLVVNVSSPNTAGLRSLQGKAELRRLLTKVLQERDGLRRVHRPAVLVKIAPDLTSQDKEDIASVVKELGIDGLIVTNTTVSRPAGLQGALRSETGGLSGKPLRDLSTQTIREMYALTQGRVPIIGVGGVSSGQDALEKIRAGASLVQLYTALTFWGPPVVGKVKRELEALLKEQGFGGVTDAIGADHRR
T1 sequence (P02550 whole entry): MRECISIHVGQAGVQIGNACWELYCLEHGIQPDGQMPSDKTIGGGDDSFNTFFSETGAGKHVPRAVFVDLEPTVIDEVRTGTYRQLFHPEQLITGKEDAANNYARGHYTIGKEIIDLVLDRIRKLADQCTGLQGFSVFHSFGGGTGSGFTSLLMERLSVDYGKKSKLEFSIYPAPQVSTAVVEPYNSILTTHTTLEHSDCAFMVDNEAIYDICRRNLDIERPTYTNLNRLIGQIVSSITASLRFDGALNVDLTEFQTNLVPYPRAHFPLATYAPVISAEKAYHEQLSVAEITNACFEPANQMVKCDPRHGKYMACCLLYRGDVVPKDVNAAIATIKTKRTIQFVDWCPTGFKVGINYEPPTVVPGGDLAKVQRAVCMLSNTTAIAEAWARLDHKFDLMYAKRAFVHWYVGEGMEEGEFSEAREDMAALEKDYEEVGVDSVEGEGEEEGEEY
T1 sequence (P02554 whole entry): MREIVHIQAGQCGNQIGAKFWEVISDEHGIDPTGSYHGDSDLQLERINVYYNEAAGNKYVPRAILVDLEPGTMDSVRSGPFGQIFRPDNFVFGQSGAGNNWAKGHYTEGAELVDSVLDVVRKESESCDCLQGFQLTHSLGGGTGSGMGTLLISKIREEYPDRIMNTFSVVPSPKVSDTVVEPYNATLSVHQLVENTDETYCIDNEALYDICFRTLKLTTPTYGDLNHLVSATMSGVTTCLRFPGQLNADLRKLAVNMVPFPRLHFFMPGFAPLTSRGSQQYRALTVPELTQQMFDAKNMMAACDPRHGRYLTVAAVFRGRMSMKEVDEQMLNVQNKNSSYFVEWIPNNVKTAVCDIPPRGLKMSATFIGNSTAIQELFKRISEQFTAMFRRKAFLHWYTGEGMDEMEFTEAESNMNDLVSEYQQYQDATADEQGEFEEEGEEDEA

Q: What does the source list for CC(C)N1C(=O)COCc2ccc(-c3cccc(NS(C)(=O)=O)c3)cc21 [OXS007002, N-(3-(1-Isopropyl-2-oxo-1,2,3,5-tetrahydrobenzo[e][1,4]oxazepin-8-yl)phenyl)methanesulfonamide]?
A: efflux ratio (Caco-2 permeability; Caco-2, read-out: EfR, efflux ratio (Caco-2)): 1.3; Papp (Caco-2 permeability; Caco-2 cell permeability): 31 ×10⁻⁶ cm/s; solubility thermodynamic [1]: > 200 µM; IC50 (porcine neuronal tubulin): 3600 nM; Activity against FLT3 (FLT3): inactive; Activity against DHODH (DHODH): inactive; fraction unbound (Plasma protein binding): 0.11; Activity against a panel of kinases (panel of kinases): inactive; bioavailability ([2]; mouse, whole blood, 3 mg/kg po vs 0.33 mg/kg iv): 28%; half-life ([2]; mouse, whole blood, single dose 3 mg/kg po and 0.33 mg/kg iv, blood, route of parameter not given): 4.9 h; Cmax [2, 6]: 104 ng/mL; Tmax [2, 6]: 0.42 h; Vd/F ([2]; mouse, whole blood, single dose 3 mg/kg po, blood, read-out: Vz/F): 101 L/kg; Clobs ([2]; single dose 0.33 mg/kg iv, blood): 73 mL/min/kg; Clobs/F ([2]; single dose 3 mg/kg po, blood): 258 mL/min/kg; EC50 (HL-60 cells; HL-60 cells): 620 nM; LipE (lipophilic efficiency) (HL-60 cells): 4.5; ER in mS9 (extraction ratio) [3]: 0.33

Q: For CS(=O)(=O)Nc1cccc(-c2ccc3c(c2)N(CC2CC2)C(=O)COC3)c1 [OXS003976, N-(3-(1-(Cyclopropylmethyl)-2-oxo-1,2,3,5-tetrahydrobenzo[e][1,4]oxazepin-8-yl)phenyl)methanesulfonamide], which solubility thermodynamic [1] is on record?
A: > 200 µM

Q: What about the “Cell morphology” value [4] of the same compound?
A: induced morphological changes consistent with differentiation

Q: What about the “Cell proliferation and viability” value [5] of the same compound?
A: decreased cell proliferation and viability

Q: And the EC50 (OCI-AML3 cells)?
A: 950 nM

Q: And the EC50 (THP-1 cells)?
A: 3400 nM

Q: And the “CD11b expression vs isotype control” value (HL-60 cells; 10 µM, 4-day treatment, HL-60 cells)?
A: upregulated CD11b expression, but not the isotype control

Q: And the EC50 (HL-60 cells; HL-60 cells)?
A: 770 nM

Q: What about the “LipE (lipophilic efficiency)” value (HL-60 cells) of the same compound?
A: 4.3

Q: And the “ER in mS9 (extraction ratio)” value [3]?
A: 0.54
